Data on one compound can be found in publication PMC5595280, “Cytotoxicity and anti-tumor effects of new ruthenium complexes on triple negative breast cancer cells” (PLoS ONE, 2017).

A value given as a limit tells only on which side of the number the result lay.

The subject of test [1] is MDA-MB-231 cells. As to the kind of experiment: Boyden chamber migration assay. The class given is cell-based, human. The note with it: 5, 10 and 20 μM, 22 h. The procedure: Cell migration was also assessed in a chemotactic assay using 24 well Boyden chambers (BD Biosciences) as described earlier. MDA-MB-231 (0.5 x 10^5/350 μL) cells, incubated or not with complex (4) 5, 10 and 20 μM were seeded on the upper chamber in a DMEM incomplete medium (without FBS). In the lower chamber DMEM medium supplemented with 10% FBS was added. Cells were allowed to migrate for 22 h at 37°C and 5% CO2 in a humidified environment. Then, cells that remained in the upper chamber were removed using a cotton swab. Cells that migrated to the other side of the upper chamber membrane were fixed with methanol and stained with 1% toluidine blue. Migrated cells were quantified by manual counting and inhibition ratio was expressed as % of control.

In test [2] the test system is MDA-MB-231 cells. As to the kind of experiment: Apoptosis by flow cytometry (PE-Annexin-V / 7AAD). The class given is cell-based, human. The note with it: MDA-MB-231, 20 μM, 3 h. The procedure: (§1) MDA-MB-231 and MCF-10A cells (1.0 x 10^5/mL) were seeded in 12-well plates in a complete DMEM medium and incubated for 24 h. After this period the medium was removed and cells were incubated or not (control) with different concentrations of complex (4), for 3 h at 37°C and 5% CO2. After treatment the plate was centrifuged at 2000 rpm for 5 min at 4°C, washed with PBS and resuspended in 400 μL of binding buffer from the kit. Cells were incubated with 10 μL of 7AAD and 10 μL of PE-Annexin-V for 15 min protected from light. After the incubation period the supernatant was removed and 400 μL of binding buffer were added to the wells. Cells were then removed from the wells with the aid of a scraper and transferred to flow cytometry tubes. The reading was performed in Accuri C6 flow cytometer (BD Biosciences) and fluorescence emitted by each dye was quantified using CellQuest software (BD Biosciences).
(A flow cytometer gives signals particle by particle.)

Test [3] concerns MCF-10A cells. As to the kind of experiment: Apoptosis by flow cytometry (PE-Annexin-V / 7AAD). The class given is cell-based, human. The note with it: 20 μM, 3 h. The protocol:
as §1

The test system of test [4] is pBR322 plasmid DNA. As to the kind of experiment: Agarose gel electrophoresis of plasmid DNA. The class given is binding. The note with it: Ri 0.50, 18 h, 37°C. The procedure: Ten microliters of pBR322 plasmid DNA in a Tris-HCl buffer were incubated at 37°C for 18 h with molar ratios between 0.12 and 0.5. After incubation, 5 μL of each sample was separated by electrophoresis in a 1% agarose gel for 45 min at 100V using a Tris borate–EDTA buffer (TBE) and stained with ethidium bromide ([…] ethidium bromide per 40 mL agarose gel mixture). Samples of DNA with DMSO were used as controls. The DNA bands were visualized as an image using a UV light transilluminator (ChemiDoc MP, BioRad Laboratories).
The influence of the compounds on the tertiary structure of DNA was determined by their ability to modify the electrophoretic mobility of forms of pBR322 plasmid DNA (Fig 6C). Agarose gel electrophoresis was performed using pBR322 plasmid DNA in the absence and presence of the complexes. […] In Ri 0.12 and 0.25 complexes (1–3) show the corresponding open circular, linear and super coiled form. […] This means that the degree of super helicity of the DNA molecules has been altered, in the same way as that described previously for other coordination platinum(II) and palladium (II) compounds containing 7-azaindolyl ligand [36].

For test [5], the system named is MDA-MB-231 cells. The experiment in a line: MTT cell proliferation assay. The settings on record: 24 h of incubation, read-out: IC50 ±SEM MDA-MB-231. The class given is cell-based, human. The protocol:
(§2) MDA-MB-231 human breast tumor cells and MCF7 human breast tumor cells, obtained from Rio de Janeiro Cell Bank, were maintained at 37°C in 5% CO2 in DMEM medium containing fetal bovine serum (FBS) 10% (Vitrocell). MCF-10A, a non-tumor breast cell line, obtained from Rio de Janeiro Cell Bank, was cultivated in DMEM/F12 medium containing horse serum (HS) 5%, EGF (0.02 mg/mL); hydrocortisone (0.05 mg/mL); cholera toxin (0.001 mg/mL) and insulin (0.01 mg/mL). Both media contained penicillin (100 UI/mL), streptomycin ([…]) and L-glutamine (2 mM).
(§3) Proliferation assays were performed as described earlier. Briefly, cells lines were prepared in a concentration of 1x10^4 cells/100 μL, in complete medium (with 10% FBS), and plated on sterile 96-well plates for 24 h. The culture medium was removed from the wells and a new one, supplemented with 10% FBS and containing different concentrations of (1) [Ru(SO4)(dppb)(bipy)] (2) [Ru(CO3)(dppb)(bipy)], (3), [Ru(C2O4)(dppb)(bipy)], or (4) [Ru(CH3CO2)(dppb)(bipy)]PF6, was added to the wells. Cells were incubated for 24 h under the same conditions as described above. Cell proliferation assay was performed in comparison with untreated control. After incubation, the culture medium of each well was removed and a solution containing MTT (1 mg/mL) was added (100 μL/well). The plates were then kept at 37°C for 4 h and the formed crystals were dissolved in DMSO. The absorbance was read on an ELISA plate reader at a wavelength of 540 nm. […] The selectivity index (SI) was calculated as the ratio IC50 (MCF-10A) / IC50 (MDA-MB-231).
(§4) Each experiment was repeated three times in triplicate and a standard error mean was calculated. Shapiro-Wilk’s test was used to verify data normality. As normal distribution was present, the results were compared statistically with a one-way or two-way analysis of variance (ANOVA). […] The data were analysed and IC50 calculations were made using Hill’s equation in the GraphPad Prism software (version 6.05).

For test [6], the system named is MCF-7 cells. As to the kind of experiment: MTT cell proliferation assay. The note with it: 24 h of incubation, read-out: IC50 ±SEM MCF-7. Type of test: cell-based, human. The procedure: as §2, §3, §4
A general note: Formazan colour is commonly taken as a measure of viable cells.

In test [7] the test system is MCF-10A cells. As to the kind of experiment: MTT cell proliferation assay. Type of test: cell-based, human. The settings on record: 24 h of incubation, read-out: IC50 ±SEM MCF-10A. The procedure: as §2, §3, §4
For test [8], the system named is MDA-MB-231 cells. The experiment in a line: Matrigel transwell invasion assay. The class given is cell-based, human. The settings on record: 20 μM, 22 h. The procedure: The effect of different concentrations of complex (4) 5, 10 μM and 20 μM on MDA-MB-231 tumor cell invasiveness was determined by the ability to transmigrate through a layer of matrigel in a transwell chamber (BD Biosciences) as described earlier. Wells were rehydrated with the addition of 1mL of warm (37°C) incomplete culture medium for 2 h. MDA-MB-231 cells (0.5 x 10^5/350 μL) were loaded on the top of matrigel in a DMEM incomplete medium. DMEM medium supplemented with 10% FBS was placed on the bottom chamber of the transwell units. Twenty-two hours later, cells that remained in the upper chamber were removed using a cotton swab and invasive cells were fixed with methanol and stained with 1% toluidine blue. The invaded cells were quantified by manual counting and inhibition ratio was expressed as % of control.

Turning to `CC(=O)[O-].F[P-](F)(F)(F)(F)F.[Ru+2].c1ccc(-c2ccccn2)nc1.c1ccc(P(CCCCP(c2ccccc2)c2ccccc2)c2ccccc2)cc1` [Complex (4), [Ru(CH3CO2)(dppb)(bipy)]PF6], the “effect on cell migration (Boyden chamber)” value in test [1] is reported as “inhibited MDA-MB-231 cell migration in a concentration dependent fashion”. Moreover, the cells suffering apoptosis was determined as 74.4% in test [2] and 14.9% in test [3]. The “electrophoretic mobility of super coiled pBR322 band” value in test [4] was “increased the electrophoretic mobility”. In addition, the figures for the IC50 in test [5], in test [6] and in test [7] were 31.16 ± 0.04 µM, over 200 µM and 48.89 ± 0.09 µM, respectively. Moreover, in test [8], the “inhibition of invasion compared to control” value is “approximately 80%”.
